These results are taken from patent US20220296866A1, “METHODS, DEVICES AND COMPOSITIONS FOR LOCAL DELIVERY” (POLY-MED, INC., priority 2019, published 2022).

Data set [1] can be described thus: Stability of Mitomycin C in PDLG film (colour change). Format: physicochemical. The settings on record: evidenced by a change in color from purple to tan. As for the experimental part: SVG12 (Poly-Med, Inc.) and PDLG (Purasorb PDLG 7507, Corbion) were separately dissolved in chloroform, each at 15% concentration (wt/vol %). Solutions were divided to create different drug-loading solutions according to the associated table. In short, lidocaine (Sigma Aldrich) was added to a solution of SVG12 at a concentration of 134 mg drug per 1 gram of SVG12. Dexamethasone was added to a separate solution of PDLG at a concentration of 29 mg drug per 1 gram of PDLG. Mitomycin C was added to a separate solution of PDLG at a concentration of 6.8 mg drug per 1 gram of PDLG. All solutions were held at room temperature on a roller until completely dissolved. The solutions were cast into thin films using a 25-mil film casting blade and allowed to dry.
Drug-loaded films were cut into rectangles and placed on SVG12-only films. In the case of the dexamethasone- and lidocaine-loaded sample, the cut films were stacked one on top of the other. In the case of mytomycin C-loaded films, 4 drug-loaded films were stacked one on top of the other to increase total delivery payload. On top of the drug-eluting film, a separate SVG12-only film was added which was larger in size. Degradable medical devices and/or compositions were clamped between rubber films between glass plates, clamped to apply pressure, and heated at 50° C. for 3 hours to create a seal between the encapsulation films. […]

The nature of data set [2]: In vitro drug release evaluation of Mitomycin C-eluting devices in artificial urine. The format is physicochemical. On the procedure:
Devices prepared from earlier examples were characterized for drug release profile in artificial urine to predict in vivo behavior in a human bladder. First, artificial urine was prepared according to ASTM F1828, with a modified buffer. Drug-containing samples were placed in individual 20 mL glass vials and 15 mL artificial urine added to cover the sample. This volume of artificial urine was sufficiently above the Mitomycin C solubility limit for each sample so as not to interfere with release analysis. Filled glass vials were placed in a 37° C. incubator on a 1 Hz orbital bed. As predetermined time points, a total changeover of artificial urine was performed, with the exchanged urine analyzed by HPLC to determine total release of Mitomycin C per time period.
HPLC analysis was performed using a Waters ACQUITY ArcHPLC with C18 column using an isocratic method with 71:29 water:methanol mobile phase. Peaks were compared against a standard curve to determine concentration in the sample, and calculated to total percentage release based on fluid volume and loading of Mitomycin C in the sample. […] A secondary release of drug is anticipated as the OC9 and SVG12 materials experience degradation.

In the case of `CO[C@@]12[C@H](COC(N)=O)C3=C(C(=O)C(C)=C(N)C3=O)N1C[C@@H]1N[C@@H]12` [Mitomycin C], the “stability of Mitomycin C in polymer” value in data set [1] was “poor stability”. The “Mitomycin C release compared with the free gel” value in data set [2] (OC9/PEG 400 gel placed in the core of the stent, 37° C.) is reported as “Further attenuation”. Besides, the “Mitomycin C release profile after the initial release” value in data set [2] (gel containing 2 parts OC9 and 1 part PEG 400, 37° C., after about 3 days) is listed as “extended release plateau”. The “total percentage release of Mitomycin C” value in data set [2] (gel containing 2 parts OC9 and 1 part PEG 400, 37° C., over about 3 days) stood at 13%.
